{"source": "patent US9642839B2", "about": "“Substance having tyrosine kinase inhibitory activity and preparation method and use thereof” (Institute of Radiation Medicine, China Academy of Military …, priority 2013, dated 2017)", "key": {"TrkA": {"molecular_target": "TrkA (Homo sapiens, UniProt P04629)", "sequence (P04629 33-796, species assumed)": "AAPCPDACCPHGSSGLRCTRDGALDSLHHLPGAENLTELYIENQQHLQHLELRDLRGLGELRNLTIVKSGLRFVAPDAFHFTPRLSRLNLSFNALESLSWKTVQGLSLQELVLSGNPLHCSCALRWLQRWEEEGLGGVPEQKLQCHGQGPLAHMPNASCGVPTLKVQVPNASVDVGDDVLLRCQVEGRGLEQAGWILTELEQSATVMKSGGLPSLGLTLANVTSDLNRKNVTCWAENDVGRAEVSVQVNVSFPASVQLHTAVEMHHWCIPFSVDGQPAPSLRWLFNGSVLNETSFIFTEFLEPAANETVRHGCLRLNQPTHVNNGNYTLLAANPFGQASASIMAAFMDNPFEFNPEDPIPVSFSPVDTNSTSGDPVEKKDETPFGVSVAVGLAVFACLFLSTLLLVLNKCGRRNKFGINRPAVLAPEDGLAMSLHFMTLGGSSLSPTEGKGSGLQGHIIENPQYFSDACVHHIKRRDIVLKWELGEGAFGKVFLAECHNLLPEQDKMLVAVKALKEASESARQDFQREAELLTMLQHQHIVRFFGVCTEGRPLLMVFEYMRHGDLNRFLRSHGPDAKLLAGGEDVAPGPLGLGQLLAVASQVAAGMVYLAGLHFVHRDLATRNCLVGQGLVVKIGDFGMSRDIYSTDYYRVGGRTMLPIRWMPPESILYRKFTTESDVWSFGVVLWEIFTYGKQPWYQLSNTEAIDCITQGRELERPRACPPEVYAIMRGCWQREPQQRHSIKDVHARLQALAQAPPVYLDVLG", "assay": "Western blot, NGF-induced TrkA phosphorylation and signaling pathway in SK-N-SH cells", "assay_type": "cell-based", "conditions": "0.05-1.0 μM, 500 ng/mL NGF", "experimental": "The medium was changed once every 1-2 days. […] 500 ng/mL NGF or 200 ng/ml BDNF (if not added, marked as “-”) were added to stimulate the cells for 5 min. After cell lysis, total protein was extracted. Western blot assay was carried out with TrkA phosphorylated and non-phosphorylated (p-TrkA) antibodies, TrkB phosphorylated and non-phosphorylated (p-TrkB) antibodies, ERK phosphorylated and non-phosphorylated (p-ERK) antibodies, Akt phosphorylated and non-phosphorylated (p-Akt) antibodies, and GAPDH antibody."}, "[1]": {"test_system": "protein tyrosine kinase (PTK)", "assay": "PTK activity assay with mouse brain tissue extract (ELISA, OD 492 nm)", "assay_type": "biochemical", "conditions": "at 400 μM", "experimental": "Tyrosine kinase buffer: 10 mL 1M HEPES (pH 7.5), 0.4 mL 5% BSA/PBS, 0.2 mL 0.1M Na3VO4, and 1 mL 5M NaCl were added to 88.4 mL double distilled water (DDW) (HEPES: Amresco; Na3VO4: Sigma).\nExtraction of tissue extract PTK: mouse brain tissue was quickly removed and weighed, followed by addition of five-fold volumes of pre-cooled homogenization buffer for homogenization. After centrifugation at 4° C., 1,000 g for 10 min, nuclei and cell debris were removed. The supernatant S1 was collected and centrifuged at 4° C., 10,000 g for 20 min, and then the supernatant S2 was collected. The precipitate P2, which represents the crude membrane protein fraction, was retained. S2 included cytoplasmic protein, and was used for testing protein tyrosine kinase (PTK) activity. In the detection of the membrane protein fraction, two-fold volumes of lysis buffer was added to P2, and the resultant was placed on ice for 10 min and centrifuged at 4° C., 10,000 g for 10 min. The supernatant S3, which represents the crude membrane protein including soluble membrane protein, was collected for testing PTK activity. Protein content in cytoplasm or membrane protein was detected by using BCA protein concentration kit (purchased from Beyotime Institute of Biotechnology). The tissue extract was stored at −70° C.\nCoating of 96-well plate: PTK substrate was dissolved and added in an amount of 100 μl to each well. The plate was covered with its lid, and incubated at 4° C. overnight (10-12 hours). Then it was washed with 200 μl elution buffer once, and dried at 37° C. for 2 h. After that, it was washed with 10 mM PBS once, dried at room temperature, and then stored at 4° C. for further use.\nGroups: blank control: 80 μl 1× tyrosine kinase buffer containing ATP+20 μl 1× tyrosine kinase buffer; negative control: 80 μl 1× tyrosine kinase buffer containing ATP+10 μl 1× tyrosine kinase buffer+7 μl tissue extract+3 μl 1× tyrosine kinase buffer; positive control: 80 μl 1× tyrosine kinase buffer containing ATP+10 μl Gefitinib+7 μl tissue extract+3 μl 1× tyrosine kinase buffer (first, the positive drug was allowed to interact with the tyrosine kinase tissue extract at room temperature for 10 min, and meanwhile the tissue extract for the negative control group was also placed at room temperature for 10 min, and then 80 μl 1× tyrosine kinase buffer containing ATP was added to respective groups); vehicle control: 80 μl 1× tyrosine kinase buffer containing ATP+10 μl DMSO+7 μl tissue extract+3 μl 1× tyrosine kinase buffer; drugs to be screened: 80 μl 1× tyrosine kinase buffer containing ATP+10 μl drug to be tested +7 μl tissue extract+3 μl 1× tyrosine kinase buffer.\nPTK activity assay: 1× tyrosine kinase buffer was prepared by evenly mixing 1 mL (10×) tyrosine kinase buffer with 9 mL DDW. The tissue extract was diluted with 1× tyrosine kinase buffer appropriately, mixed with it gently and evenly, and placed on ice. ATP stock solution was dissolved by evenly mixing 48 μl ATP stock solution with 1 mL 1× tyrosine kinase buffer, and placed on ice. The microplate reader was added in respective wells with the groups formulated as above, covered with the lid, and incubated at room temperature for 30 min. The microplate reader was washed with 200 μl elution buffer and tapped until the residual buffer was removed, and this procedure was repeated for five times. To each well, 100 μl antibody diluent (antibody elution buffer diluted at a ratio of 1:2000) was added. The reader was covered with the lid, and incubated at room temperature for 30 min. OPD solution was prepared by addition of 4 mg OPD into a mixture of 4.86 mL 0.1 mol/L citric acid solution and 5.14 mL 0.2 mol/L Na2HPO4 solution, followed by addition of 50 μl 30% H2O2 to allow for complete dissolution, and then was protected from light. The antibody solution was removed. The reader was washed with 200 μl elution buffer and tapped until the residual buffer was removed, and this procedure was repeated for five times."}, "NCI-H460 cells": {"test_system": "NCI-H460 cells", "assay": "Subcutaneous tumor-bearing nude mice model", "assay_type": "in vivo", "conditions": "NCI-H460 s.c. nude mice; 16 mg/kg intraperitoneal, once every 24 h, 6 administrations; by tumor weight", "excerpt": "(§1) The cells were washed with PBS twice, and suspended."}, "HepG2 cells": {"test_system": "HepG2 cells", "assay": "Subcutaneous tumor-bearing nude mice model", "assay_type": "in vivo", "conditions": "HepG2 s.c. nude mice; 16 mg/kg intraperitoneal, once every 24 h, 6 administrations; by tumor weight", "excerpt": "as §1"}, "MHCC-97H cells": {"test_system": "MHCC-97H cells", "assay": "Liver orthotopic tumor model", "assay_type": "in vivo, nude mice", "conditions": "for Tumor inhibition rate / Weight of tumor: 6 administrations; for Average weight (X ± S), End: animal weight at end, in g (unit assumed)", "excerpt": "The medium was changed once every 1-2 days. […] The subcultured tumor cells were digested under a sterile condition and resuspended with sodium chloride injection, and subcutaneously inoculated at the right flank of nude mice. When the subcutaneous tumors in the nude mice grew to a volume about 1,500-2,000 mm^3, the tumor mass was removed under a sterile condition, and cut into pieces in a size about 1.0×1.0 mm for future use. Then the nude mice to be inoculated were anesthetized and fixed on the operating table. The abdominal skin was disinfected, and an incision about 1 cm was made in the left upper abdomen to expose the liver, with the surgical site covered. The prepared tumor piece was placed into a dedicated inoculation trocar, and was implanted into the liver by using the trocar. The bleeding site of the wound was treated with sterilized gauze or sterilized cotton swab to stop the bleeding. Then liver which underwent surgery was placed back into the abdominal cavity of mice. The abdominal muscles and skin were sutured with 4/0 gauge surgical needle sequentially. After normal feeding of the mice for 2 weeks, size of liver tumor was observed under B-ultrasound.\nMethod: Animal models were randomized into vehicle control group, intraperitoneal low dose group (18 mg/kg), intraperitoneal high dose group (36 mg/kg), and gavage group (36 mg/kg), with 9 mice each group. The mice received treatment once every 24 hours. Intraperitoneal administration was done by intraperitoneal injection. The vehicle control group received DMSO injected intraperitoneally. Six times of administration were given. After the last administration, animals were kept for another 3 weeks, then sacrificed by cervical dislocation, and dissected to obtain liver. Visible tumor was dissected and weighed."}, "[2]": {"conditions": "intraperitoneal high dose 36 mg/kg"}, "[3]": {"conditions": "intraperitoneal low dose 18 mg/kg"}}}
{"compound": "Cc1ccccc1NS(=O)(=O)c1ccc2c(c1)/C(=C/c1nc3ccccc3[nH]1)C(=O)N2", "note": "[Indo 5, 3-(1H-benzimidazol-2-methylene)-5-(2-methylphenylaminosulfo)-2-indolone]", "values": [{"measurement": "Phosphorylation of TrkA and downstream ERK", "setting": "TrkA", "result": "significantly inhibited"}, {"measurement": "Inhibition rate on tyrosine kinase", "setting": "[1]", "result": 53.4, "unit": "%"}, {"measurement": "Tumor inhibition rate", "setting": "NCI-H460 cells", "result": 59, "unit": "%"}, {"measurement": "Tumor inhibition rate", "setting": "HepG2 cells", "result": 61, "unit": "%"}, {"measurement": "Tumor inhibition rate", "setting": "MHCC-97H cells; gavage (PO) 36 mg/kg", "result": 62.2, "unit": "%"}, {"measurement": "Weight of tumor", "setting": "MHCC-97H cells; gavage (PO) 36 mg/kg", "result": "0.401 ± 0.530", "unit": "g"}, {"measurement": "Average weight (X ± S), End", "setting": "MHCC-97H cells; gavage (PO) 36 mg/kg", "result": "21.01 ± 3.41"}, {"measurement": "Tumor inhibition rate", "setting": "MHCC-97H cells; [2]", "result": 62.4, "unit": "%"}, {"measurement": "Weight of tumor", "setting": "MHCC-97H cells; [2]", "result": "0.399 ± 0.486", "unit": "g"}, {"measurement": "Disappearance of liver tumor at end of experiment", "setting": "MHCC-97H cells; intraperitoneal high dose 36 mg/kg, 9 animals", "result": "Liver cancer was gone in one animal"}, {"measurement": "Average weight (X ± S), End", "setting": "MHCC-97H cells; [2]", "result": "21.18 ± 1.44"}, {"measurement": "Tumor inhibition rate", "setting": "MHCC-97H cells; [3]", "result": 55.5, "unit": "%"}, {"measurement": "Weight of tumor", "setting": "MHCC-97H cells; [3]", "result": "0.473 ± 0.497", "unit": "g"}, {"measurement": "Average weight (X ± S), End", "setting": "MHCC-97H cells; [3]", "result": "20.61 ± 2.33"}]}
